# Target: CCR2 (Homo sapiens (Human), UniProt P41597)
# Experiment: Calcium activity assayed on the FLIPR Tetra in HEK-Gqi5 cells stably expressing CCR2
# Assay type: cell-based
# Conditions: FLIPR Tetra calcium assay
# Procedure: HEK-Gqi5 cells stably expressing CCR2 were cultured in (DMEM high glucose, 10% FBS, 1% PSA, 400 μg/ml geneticin and 50 μg/ml hygromycin. Appropriate positive control chemokines (MCP-1, MIP1A or RANTES) was used as the positive control agonist for screening compound-induced calcium activity assayed on the FLIPR^Tetra. The drug plates were prepared in 384-well microplates using the EP3 and the MuItiPROBE robotic liquid handling systems. Compounds were synthesized and tested for CCR^2 activity.
# CCR2, sequence (P41597 whole entry, species assumed): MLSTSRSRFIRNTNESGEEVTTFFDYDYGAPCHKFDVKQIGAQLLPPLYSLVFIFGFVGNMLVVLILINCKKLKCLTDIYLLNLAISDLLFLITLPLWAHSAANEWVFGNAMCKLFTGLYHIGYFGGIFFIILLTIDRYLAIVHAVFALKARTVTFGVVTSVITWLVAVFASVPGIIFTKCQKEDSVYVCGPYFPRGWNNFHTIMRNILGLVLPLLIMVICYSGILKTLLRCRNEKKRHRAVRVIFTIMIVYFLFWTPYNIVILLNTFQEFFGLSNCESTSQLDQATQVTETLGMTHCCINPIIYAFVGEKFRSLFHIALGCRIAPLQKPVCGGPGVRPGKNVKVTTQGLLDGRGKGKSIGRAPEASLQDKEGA
SMILES,CCR2 % ANTAGONISM,IC50
CSc1ccc(Cl)cc1NS(=O)(=O)c1ccc(Cl)cc1 [4-chloro-N-[5-chloro-2-(methylthio)phenyl]benzenesulfonamide],94%,406 nM
O=S(=O)(Nc1cc(Cl)ccc1[S+]([O-])Cc1ncc[nH]1)c1ccc(Cl)c(C(F)(F)F)c1 (stereo not shown) [4-chloro-N-{5-chloro-2-[(1H-imidazol-2-ylmethyl)sulfinyl]phenyl}-3-(trifluoromethyl)benzenesulfonamide],109%,163 nM
O=S(=O)(Cc1ncc[nH]1)c1ccc(Cl)cc1NS(=O)(=O)c1ccc(Cl)c(C(F)(F)F)c1 [4-chloro-N-{5-chloro-2-[(1H-imidazol-2-ylmethyl)sulfonyl]phenyl}-3-(trifluoromethyl)benzenesulfonamide],113%,249 nM
O=S(=O)(Nc1cc(Cl)ccc1SCc1ncc[nH]1)c1ccc(Cl)c(C(F)(F)F)c1 [4-chloro-N-{5-chloro-2-[(1H-imidazol-2-ylmethyl)thio]phenyl}-3-(trifluoromethyl)benzenesulfonamide],84%,190 nM
O=S(=O)(Nc1cc(Cl)ccc1[S+]([O-])Cc1c[nH]cn1)c1ccc(Cl)c(C(F)(F)F)c1 (stereo not shown) [4-chloro-N-{5-chloro-2-[(1H-imidazol-4-ylmethyl)sulfinyl]phenyl}-3-(trifluoromethyl)benzenesulfonamide],111%,158 nM
O=S(=O)(Cc1c[nH]cn1)c1ccc(Cl)cc1NS(=O)(=O)c1ccc(Cl)c(C(F)(F)F)c1 [4-chloro-N-{5-chloro-2-[(1H-imidazol-4-ylmethyl)sulfonyl]phenyl}-3-(trifluoromethyl)benzenesulfonamide],108%,51 nM
O=S(=O)(Nc1cc(Cl)ccc1SCc1c[nH]cn1)c1ccc(Cl)c(C(F)(F)F)c1 [4-chloro-N-{5-chloro-2-[(1H-imidazol-4-ylmethyl)thio]phenyl}-3-(trifluoromethyl)benzenesulfonamide],83%,68 nM
O=S(=O)(Nc1cc(Cl)ccc1[S+]([O-])CCO)c1ccc(Cl)c(C(F)(F)F)c1 (stereo not shown) [4-chloro-N-{5-chloro-2-[(2-hydroxyethyl)sulfinyl]phenyl}-3-(trifluoromethyl)benzenesulfonamide],101%,146 nM
O=S(=O)(CCO)c1ccc(Cl)cc1NS(=O)(=O)c1ccc(Cl)c(C(F)(F)F)c1 [4-chloro-N-{5-chloro-2-[(2-hydroxyethyl)sulfonyl]phenyl}-3-(trifluoromethyl)benzenesulfonamide],96%,95 nM
O=S(=O)(Nc1cc(Cl)ccc1SCCO)c1ccc(Cl)c(C(F)(F)F)c1 [4-chloro-N-{5-chloro-2-[(2-hydroxyethyl)thio]phenyl}-3-(trifluoromethyl)benzenesulfonamide],88%,153 nM
O=S(=O)(Nc1cc(Cl)ccc1[S+]([O-])C1CCC(O)C1)c1ccc(Cl)c(C(F)(F)F)c1 (stereo not shown) [4-chloro-N-{5-chloro-2-[(3-hydroxycyclopentyl)sulfinyl]phenyl}-3-(trifluoromethyl)benzenesulfonamide],101%,107 nM
O=S(=O)(Nc1cc(Cl)ccc1S(=O)(=O)C1CCC(O)C1)c1ccc(Cl)c(C(F)(F)F)c1 (stereo not shown) [4-chloro-N-{5-chloro-2-[(3-hydroxycyclopentyl)sulfonyl]phenyl}-3-(trifluoromethyl)benzenesulfonamide],97%,76 nM
O=S(=O)(Nc1cc(Cl)ccc1[S+]([O-])Cc1ccccn1)c1ccc(Cl)c(C(F)(F)F)c1 (stereo not shown) [4-chloro-N-{5-chloro-2-[(pyridin-2-ylmethyl)sulfinyl]phenyl}-3-(trifluoromethyl)benzenesulfonamide],83%,92 nM
O=S(=O)(Nc1cc(Cl)ccc1SCc1ccccn1)c1ccc(Cl)c(C(F)(F)F)c1 [4-chloro-N-{5-chloro-2-[(pyridin-2-ylmethyl)thio]phenyl}-3-(trifluoromethyl)benzenesulfonamide],79%,199 nM

# Source: US9663460B2, “Sulfur derivatives as chemokine receptor modulators” (ALLERGAN, INC., priority 2010, dated 2017)
